Results from PubChem BioAssay AID330 (DTP/NCI, 2004).
Values joined by “and” are separate entries in the source; they are usually repeats but may differ in a detail not shown here. Equal values may be shown once. Inconclusive results and toxic doses are left out. How the source made its calls: active means survival T/C of 150% or more; inactive means T/C below 125% in these data. Peptide text beside a SMILES is read from it. * marks the point of attachment. Cbz = O=C(OCc1ccccc1)*; OBn = c1ccc(CO*)cc1

Tested on: P388 leukemia ip, CD2F1 mice, survival T/C
Assay: NCI In Vivo Anticancer Drug Screen. Data for tumor model P388 Leukemia (intraperitoneal) in CD2F1 (CDF1) mice
Settings: endpoint: median survival time, higher = longer survival
Method in brief: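 Mice carrying the transplanted tumor received test compound or vehicle. Survival was recorded in each group, and the value is the treated-group measurement divided by that of the vehicle-treated control group.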

[1] = dose: 60.0 mg/kg/injection, schedule: Q01DX005 (ip), vehicle: saline with Tween-80
[2] = dose: 120.0 mg/kg/injection, schedule: Q01DX005 (ip), vehicle: saline with Tween-80
[3] = dose: 240.0 mg/kg/injection, schedule: Q01DX005 (ip), vehicle: saline with Tween-80
[4] = dose: 50.0 mg/kg/injection, schedule: Q01DX005 (ip), vehicle: saline with Tween-80
[5] = dose: 100.0 mg/kg/injection, schedule: Q01DX005 (ip), vehicle: saline with Tween-80
[6] = dose: 200.0 mg/kg/injection, schedule: Q01DX005 (ip), vehicle: saline with Tween-80
[7] = dose: 100.0 mg/kg/injection, schedule: Q04DX003 (ip), vehicle: saline with Tween-80
[8] = dose: 200.0 mg/kg/injection, schedule: Q04DX003 (ip), vehicle: saline with Tween-80
[9] = dose: 50.0 mg/kg/injection, schedule: Q01DX009 (ip), vehicle: saline
[10] = dose: 100.0 mg/kg/injection, schedule: Q01DX009 (ip), vehicle: saline
[11] = dose: 200.0 mg/kg/injection, schedule: Q01DX009 (ip), vehicle: saline
[12] = dose: 50.0 mg/kg/injection, schedule: Q01DX009 (ip), vehicle: saline with Tween-80
[13] = dose: 100.0 mg/kg/injection, schedule: Q01DX009 (ip), vehicle: saline with Tween-80
[14] = dose: 200.0 mg/kg/injection, schedule: Q01DX009 (ip), vehicle: saline with Tween-80

Measured: T/C

CC([C@H](c1ccccc1)C1CCC(C(N)=O)(N2CCOCC2)C1)[N+](=O)[O-] (stereo partly specified)
inactive: dose: 60.0 mg/kg/injection, schedule: Q01DX005 (ip), vehicle: Klucel (hydroxypropylcellulose) (HPC) 99 % of control | dose: 120.0 mg/kg/injection, schedule: Q01DX005 (ip), vehicle: Klucel (hydroxypropylcellulose) (HPC) 99 % of control | dose: 240.0 mg/kg/injection, schedule: Q01DX005 (ip), vehicle: Klucel (hydroxypropylcellulose) (HPC) 93 % of control

O=S(=O)(CCCl)c1ccc2ccccc2c1
inactive: dose: 12.5 mg/kg/injection, schedule: Q01DX009 (ip), vehicle: Klucel (hydroxypropylcellulose) (HPC) 118 % of control and 90 % of control | dose: 25.0 mg/kg/injection, schedule: Q01DX009 (ip), vehicle: Klucel (hydroxypropylcellulose) (HPC) 114 % of control | dose: 50.0 mg/kg/injection, schedule: Q01DX009 (ip), vehicle: Klucel (hydroxypropylcellulose) (HPC) 106 % of control and 117 % of control

O=C(c1ccc(O)cc1)c1ccc(O)cc1O
inactive: dose: 66.0 mg/kg/injection, schedule: Q01DX001 (ip), vehicle: saline 100 % of control | dose: 150.0 mg/kg/injection, schedule: Q01DX001 (ip), vehicle: saline 88 % of control | dose: 200.0 mg/kg/injection, schedule: Q01DX001 (ip), vehicle: saline 100 % of control | dose: 400.0 mg/kg/injection, schedule: Q01DX001 (ip), vehicle: saline 100 % of control

Cc1cc(Cl)c2c(c1N)C(=O)c1ccccc1C2=O
inactive: dose: 50.0 mg/kg/injection, schedule: Q01DX005 (ip), vehicle: Klucel (hydroxypropylcellulose) (HPC) 97 % of control | dose: 100.0 mg/kg/injection, schedule: Q01DX005 (ip), vehicle: Klucel (hydroxypropylcellulose) (HPC) 96 % of control | dose: 200.0 mg/kg/injection, schedule: Q01DX005 (ip), vehicle: Klucel (hydroxypropylcellulose) (HPC) 98 % of control

CSc1nc(NC2OC(CO)C(O)C(O)C2O)c(C=O)c(=O)[nH]1 (stereo unspecified)
inactive: [1] 92 % of control | [2] 95 % of control | [3] 87 % of control

COc1ccccc1N/N=c1\c2nc3ccccc3nc1n(-c1ccccc1C)c(=S)n2-c1ccc(Cl)cc1
inactive: [4] 88 % of control | [5] 94 % of control | [6] 103 % of control

O=C1NCC(CCl)O1 (stereo unspecified)
inactive: dose: 60.0 mg/kg/injection, schedule: Q01DX005 (ip), vehicle: saline 100 % of control | dose: 120.0 mg/kg/injection, schedule: Q01DX005 (ip), vehicle: saline 101 % of control | dose: 240.0 mg/kg/injection, schedule: Q01DX005 (ip), vehicle: saline 102 % of control

CC(C)CNC1=CC(=O)c2ccccc2C1=O
inactive: dose: 50.0 mg/kg/injection, schedule: Q04DX003 (ip), vehicle: saline with Tween-80 106 % of control | [7] 108 % of control | [8] 92 % of control

Cc1ccc(NC2SC(=O)N(Cc3ccccc3)/C2=N/N=C2\C(Nc3ccc(C)cc3)SC(=O)N2Cc2ccccc2)cc1 (stereo unspecified)
inactive: dose: 100.0 mg/kg/injection, schedule: Q04DX002 (ip), vehicle: Klucel (hydroxypropylcellulose) (HPC) 97 % of control | dose: 200.0 mg/kg/injection, schedule: Q04DX002 (ip), vehicle: Klucel (hydroxypropylcellulose) (HPC) 97 % of control | dose: 400.0 mg/kg/injection, schedule: Q04DX002 (ip), vehicle: Klucel (hydroxypropylcellulose) (HPC) 97 % of control

CC(=O)Oc1ccc2c(c1)c1c(OC(C)=O)c(N(C)C(C)=O)cc(OC(C)=O)c1n2C
inactive: [9] 100 % of control | [10] 86 % of control | [11] 100 % of control

O=C1c2cc3c(cc2C(=O)c2[nH]c(=O)ccc21)CCCC3
inactive: [4] 100 % of control | [5] 88 % of control | [6] 101 % of control

CC1(C)C(C)(C)C1(Cl)S(C)(=O)=O
inactive: [7] 101 % of control | [8] 106 % of control | dose: 400.0 mg/kg/injection, schedule: Q04DX003 (ip), vehicle: saline with Tween-80 106 % of control

S=C(Nc1ccc(Cl)c(Cl)c1)SC1CCCCC1
inactive: dose: 25.0 mg/kg/injection, schedule: Q01DX009 (ip), vehicle: saline 107 % of control | [9] 91 % of control | dose: 50.0 mg/kg/injection, schedule: Q01DX009 (ip), vehicle: suspension in saline 105 % of control | [10] 100 % of control | dose: 100.0 mg/kg/injection, schedule: Q01DX009 (ip), vehicle: suspension in saline 115 % of control | [11] 123 % of control | dose: 200.0 mg/kg/injection, schedule: Q01DX009 (ip), vehicle: suspension in saline 120 % of control

CCOC(=O)c1ccc(NC(=O)CS)cc1
inactive: dose: 25.0 mg/kg/injection, schedule: Q01DX009 (ip), vehicle: saline with Tween-80 98 % of control | [12] 99 % of control | [13] 102 % of control | [14] 108 % of control

CCCCCCC[N+]1([O-])CCOCC1
inactive: [9] 99 % of control | [10] 100 % of control | [11] 97 % of control

Cc1ccc(/C=C/C(=O)C(C)CN(C)C)cc1C (stereo unspecified)
inactive: dose: 50.0 mg/kg/injection, schedule: Q01DX005 (ip), vehicle: saline 106 % of control | dose: 100.0 mg/kg/injection, schedule: Q01DX005 (ip), vehicle: saline 109 % of control

CN1C(c2ccccc2)=C(C#N)C(=O)CC(c2ccco2)N1C (stereo unspecified)
inactive: [1] 98 % of control | [2] 92 % of control | [3] 89 % of control

CC(=O)OC1CC2CCC1(/C=C/C(=O)c1ccccc1)C2 (stereo unspecified)
inactive: [12] 100 % of control | [13] 100 % of control | [14] 113 % of control

Cc1cccc(C2=NC(=C3CCCCC3)C(=O)O2)c1
inactive: [1] 101 % of control | [2] 100 % of control | [3] 100 % of control

CC(C)C(NC(=O)C(CCCCNC(=O)OCc1ccccc1)NC(=O)OCc1ccccc1)C(=O)OCc1ccccc1 (stereo unspecified) (Cbz-Lys(Cbz)-Val-OBn; configuration not given here)
inactive: [4] 89 % of control | [5] 91 % of control | [6] 103 % of control

CC(C)(C)OC1COCCO1 (stereo unspecified)
inactive: [1] 102 % of control | [2] 99 % of control | [3] 93 % of control

CC/C=C(\CC)C(=O)O
inactive: [9] 90 % of control | [10] 100 % of control | [11] 102 % of control
